According to US11236087B2, “Highly active pyrazolo-piperidine substituted indole-2-carboxamides active against the hepatitis B virus (HBV)” (AiCuris GmbH & Co. KG, priority 2017, dated 2022):
pEC50: −log10 of the molar value.

Key:
[1] = Cell viability assay (AlamarBlue) in HepAD38 cells; conditions: human
HBV = test: Determination of HBV DNA from the supernatants of HepAD38 cells (anti-HBV activity); type: cell-based, hepatitis B virus; conditions: Hepatitis B virus, 144 h; HBV DNA in HepAD38 supernatant, day 6, qPCR; read-out: Cell Activity (EC50)
Protocol: Determination of HBV DNA from the Supernatants of HepAD38 Cells
The anti-HBV activity was analysed in the stable transfected cell line HepAD38, which has been described to secrete high levels of HBV virion particles (Ladner et al., 1997). In brief, HepAD38 cells were cultured at 37° C. at 5% CO2 and 95% humidity in 200 μl maintenance medium, which was Dulbecco's modified Eagle's medium/Nutrient Mixture F-12 (Gibco, Karlsruhe), 10% fetal bovine serum (PAN Biotech Aidenbach) supplemented with 50 μg/ml penicillin/streptomycin (Gibco, Karlsruhe), 2 mM L-glutamine (PAN Biotech, Aidenbach), 400 μg/ml G418 (AppliChem, Darmstadt) and 0.3 μg/ml tetracycline. Cells were subcultured once a week in a 1:5 ratio, but were usually not passaged more than ten times. For the assay 60,000 cells were seeded in maintenance medium without any tetracycline into each well of a 96-well plate and treated with serial half-log dilutions of test compound. To minimize edge effects the outer 36 wells of the plate were not used but were filled with assay medium. On each assay plate six wells for the virus control (untreated HepAD38 cells) and six wells for the cell control (HepAD38 cells treated with 0.3 μg/ml tetracycline) were allocated, respectively. In addition, one plate set with reference inhibitors like BAY 41-4109, entecavir, and lamivudine instead of screening compounds were prepared in each experiment. In general, experiments were performed thrice in triplicates. At day 6 HBV DNA from 100 μl filtrated cell culture supernatant (AcroPrep Advance 96 Filter Plate, […] Supor membran, PALL GmbH, Dreieich) was automatically purified on the MagNa Pure LC instrument using the MagNA Pure 96 DNA and Viral NA Small Volume Kit (Roche Diagnostics, Mannheim) according to the instructions of the manufacturer. EC50 values were calculated from relative copy numbers of HBV DNA In brief, 5 μl of the 100 μl eluate containing HBV DNA were subjected to PCR LC480 Probes Master Kit (Roche) together with 1 μM antisense primer […], 0.5 μM sense primer […], 0.3 μM hybprobes […]-FL and LC640-[…]-PH (TIBMoBiol, Berlin) to a final volume of 12.5 μl. The PCR was performed on the Light Cycler 480 real time system (Roche Diagnostics, Mannheim) using the following protocol: Pre-incubation for 1 min at 95° C., amplification: 40 cycles×(10 sec at 95° C., 50 sec at 60° C., 1 sec at 70° C.), cooling for 10 sec at 40° C. Viral load was quantitated against known standards using HBV plasmid DNA of pCH-9/3091 (Nassal et al., 1990, Cell 63: 1357-1363) and the LightCycler 480 SW 1.5 software (Roche Diagnostics, Mannheim) and EC50 values were calculated using non-linear regression with GraphPad Prism 6 (GraphPad Software Inc., La Jolla, USA).

Row | Compound | CC50 at 6 days [1] [µM] | pEC50 (HBV)
1 | O=C(c1cc2ccccc2[nH]1)N1CCc2[nH]nc(C(=O)N(C3CCOCC3)C3CC3)c2C1 [Example 293, N-cyclopropyl-5-(1H-indole-2-carbonyl)-N-(oxan-4-yl)-1H,4H,5H,6H,7H-pyrazolo[4,3-c]pyridine-3-carboxamide] | > 10 | > 4.00
2 | CN(C(=O)c1[nH]nc2c1CN(C(=O)c1cc3cccc(F)c3[nH]1)CC2)C1CC1 [Example 319, N-cyclopropyl-5-(7-fluoro-1H-indole-2-carbonyl)-N-methyl-2H,4H,5H,6H,7H-pyrazolo[4,3-c]pyridine-3-carboxamide] | > 10 | > 6.00
3 | CN(C(=O)c1[nH]nc2c1CN(C(=O)c1cc3ccc(F)cc3[nH]1)CC2)C1CC1 [Example 320, N-cyclopropyl-5-(6-fluoro-1H-indole-2-carbonyl)-N-methyl-2H,4H,5H,6H,7H-pyrazolo[4,3-c]pyridine-3-carboxamide] | > 10 | > 6.00
4 | CN(C(=O)c1[nH]nc2c1CN(C(=O)c1cc3cc(F)ccc3[nH]1)CC2)C1CC1 [Example 321, N-cyclopropyl-5-(5-fluoro-1H-indole-2-carbonyl)-N-methyl-2H,4H,5H,6H,7H-pyrazolo[4,3-c]pyridine-3-carboxamide] | > 10 | > 6.00
5 | O=C(c1cc2c(Cl)cc(F)cc2[nH]1)N1CCc2[nH]nc(C34CC(C3)C4)c2C1 [Example 335, 2-(3-{bicyclo[1.1.1]pentan-1-yl}-1H,4H,5H,6H,7H-pyrazolo[4,3-c]pyridine-5-carbonyl)-4-chloro-6-fluoro-1H-indole] | > 10 | > 6.00
6 | O=C(c1cc2c(Cl)cccc2[nH]1)N1CCc2n[nH]c(C3CCC3)c2C1 [Example 387, 4-chloro-2-{3-cyclobutyl-2H,4H,5H,6H,7H-pyrazolo[4,3-c]pyridine-5-carbonyl}-1H-indole] | > 10 | > 6.00
7 | O=C(c1cc2c(F)cc(F)cc2[nH]1)N1CCc2n[nH]c(C3CCC3)c2C1 [Example 388, 2-{3-cyclobutyl-2H,4H,5H,6H,7H-pyrazolo[4,3-c]pyridine-5-carbonyl}-4,6-difluoro-1H-indole] | > 10 | > 6.00
8 | O=C(c1cc2ccc(F)c(F)c2[nH]1)N1CCc2n[nH]c(C3CCC3)c2C1 [Example 389, 2-{3-cyclobutyl-2H,4H,5H,6H,7H-pyrazolo[4,3-c]pyridine-5-carbonyl}-6,7-difluoro-1H-indole] | > 10 | > 6.00
9 | O=C(c1cc2cc(F)c(F)cc2[nH]1)N1CCc2n[nH]c(C3CCC3)c2C1 [Example 390, 2-{3-cyclobutyl-2H,4H,5H,6H,7H-pyrazolo[4,3-c]pyridine-5-carbonyl}-5,6-difluoro-1H-indole] | > 10 | > 6.00
10 | O=C(c1cc2c(F)c(F)ccc2[nH]1)N1CCc2n[nH]c(C3CCC3)c2C1 [Example 391, 2-{3-cyclobutyl-2H,4H,5H,6H,7H-pyrazolo[4,3-c]pyridine-5-carbonyl}-4,5-difluoro-1H-indole] | > 10 | > 6.00
11 | O=C(c1cc2cccc(F)c2[nH]1)N1CCc2n[nH]c(C3CCC3)c2C1 [Example 392, 2-{3-cyclobutyl-2H,4H,5H,6H,7H-pyrazolo[4,3-c]pyridine-5-carbonyl}-7-fluoro-1H-indole] | > 10 | > 6.00
12 | O=C(c1cc2ccc(F)cc2[nH]1)N1CCc2n[nH]c(C3CCC3)c2C1 [Example 393, 2-{3-cyclobutyl-2H,4H,5H,6H,7H-pyrazolo[4,3-c]pyridine-5-carbonyl}-6-fluoro-1H-indole] | > 10 | > 6.00
13 | O=C(c1cc2cc(F)ccc2[nH]1)N1CCc2n[nH]c(C3CCC3)c2C1 [Example 394, 2-{3-cyclobutyl-2H,4H,5H,6H,7H-pyrazolo[4,3-c]pyridine-5-carbonyl}-5-fluoro-1H-indole] | > 10 | > 6.00
14 | CCOCC1(N(C)C(=O)c2[nH]nc3c2CN(C(=O)c2cc4ccc(F)cc4[nH]2)CC3)CC1 [Example 395, N-[1-(ethoxymethyl)cyclopropyl]-5-(6-fluoro-1H-indole-2-carbonyl)-N-methyl-2H,4H,5H,6H,7H-pyrazolo[4,3-c]pyridine-3-carboxamide] | > 10 | > 6.00
15 | O=C(c1cc2c(F)ccc(F)c2[nH]1)N1CCc2[nH]nc(C3CCC3)c2C1 [Example 396, 2-{3-cyclobutyl-1H,4H,5H,6H,7H-pyrazolo[4,3-c]pyridine-5-carbonyl}-4,7-difluoro-1H-indole] | > 10 | > 6.00
16 | O=C(c1cc2c(F)cccc2[nH]1)N1CCc2n[nH]c(C3CCC3)c2C1 [Example 397, 2-{3-cyclobutyl-2H,4H,5H,6H,7H-pyrazolo[4,3-c]pyridine-5-carbonyl}-4-fluoro-1H-indole] | > 10 | > 6.00
17 | Cc1noc(C2(N(C)C(=O)c3[nH]nc4c3CN(C(=O)c3cc5ccccc5[nH]3)CC4)CC2)n1 [Example 398, 5-(1H-indole-2-carbonyl)-N-methyl-N-[1-(3-methyl-1,2,4-oxadiazol-5-yl)cyclopropyl]-2H,4H,5H,6H,7H-pyrazolo[4,3-c]pyridine-3-carboxamide] | > 10 | > 6.00
18 | CC(F)(F)c1cc(F)cc2[nH]c(C(=O)N3CCc4n[nH]c(C5CCC5)c4C3)cc12 [Example 399, 2-{3-cyclobutyl-2H,4H,5H,6H,7H-pyrazolo[4,3-c]pyridine-5-carbonyl}-4-(1,1-difluoroethyl)-6-fluoro-1H-indole] | > 10 | > 6.00
19 | O=C(c1cc2c(C(F)F)cc(F)cc2[nH]1)N1CCc2n[nH]c(C3CCC3)c2C1 [Example 400, 2-{3-cyclobutyl-2H,4H,5H,6H,7H-pyrazolo[4,3-c]pyridine-5-carbonyl}-4-(difluoromethyl)-6-fluoro-1H-indole] | > 10 | > 6.00
20 | O=C(c1cc2ccccc2[nH]1)N1CCc2n[nH]c(C(=O)N3CC(F)(F)CC34CC4)c2C1 [Example 401, 2-(3-{6,6-difluoro-4-azaspiro[2.4]heptane-4-carbonyl}-2H,4H,5H,6H,7H-pyrazolo[4,3-c]pyridine-5-carbonyl)-1H-indole] | > 10 | > 6.00
21 | CN(C(=O)c1[nH]nc2c1CN(C(=O)c1cc3ccccc3[nH]1)CC2)C1(c2ccno2)CC1 [Example 402, 5-(1H-indole-2-carbonyl)-N-methyl-N-[1-(1,2-oxazol-5-yl)cyclopropyl]-2H,4H,5H,6H,7H-pyrazolo[4,3-c]pyridine-3-carboxamide] | > 10 | > 6.00
